These molecules were tested against Recombinant human c-Src (Homo sapiens (Human), UniProt P12931) (assay: Src kinase inhibition in vitro (luciferase-based residual ATP, KinaseGlo)). Conditions: ATP 3 μM, PTK2 substrate, 90 minutes at room temperature.
Assay type: biochemical
Description: The ability of compounds of the present invention to inhibit the activity of three groups of kinases was tested. Kinases tested included the src family (primarily src and yes), some angiogenic growth factor receptors (Fgfr1, Vegfr, and Pdgfrβ) and the ephrin, EphB4. All kinase reactions were conducted in 96-well plates with a final reaction volume of 50 ul.
After reacting for about 90 minutes at room temperature, residual ATP was determined using a luciferase-based assay (KinaseGlo, Promega Corp.) as a measure of kinase activity. Data from four wells were then averaged and used to determine IC50 values for the test compounds (Prism software package, GraphPad Software, San Diego Calif.).
The test results for inhibition of Src kinase are presented in Table 1, and the test results for inhibition of some other kinases (i.e., Yes, EphB4, and Pdgfrβ) are presented in Table 2.

Recombinant human c-Src, sequence (P12931 whole entry, looked up): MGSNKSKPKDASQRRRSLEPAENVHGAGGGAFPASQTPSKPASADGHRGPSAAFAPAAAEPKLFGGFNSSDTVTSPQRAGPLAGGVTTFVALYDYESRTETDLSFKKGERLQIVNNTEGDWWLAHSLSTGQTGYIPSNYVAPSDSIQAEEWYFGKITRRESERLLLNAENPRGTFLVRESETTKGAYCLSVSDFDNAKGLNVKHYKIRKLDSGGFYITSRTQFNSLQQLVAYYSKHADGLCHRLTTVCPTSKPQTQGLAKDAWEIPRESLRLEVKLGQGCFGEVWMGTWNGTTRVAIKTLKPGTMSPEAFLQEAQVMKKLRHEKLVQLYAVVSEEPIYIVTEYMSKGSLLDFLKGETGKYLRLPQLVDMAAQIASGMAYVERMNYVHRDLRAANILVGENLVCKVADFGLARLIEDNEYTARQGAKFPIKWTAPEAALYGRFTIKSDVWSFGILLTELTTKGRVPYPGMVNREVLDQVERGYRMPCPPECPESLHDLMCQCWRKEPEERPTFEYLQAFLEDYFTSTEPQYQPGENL

Row | Compound | IC50
1 | Cc1ccc(C#N)cc1-c1cc(C)c2nc(Nc3ccc(S(=O)(=O)NCCN4CCCC4)cc3)nnc2c1 | 25.2 nM
2 | Cc1cccc(C)c1-c1cc(C)c2nc(Nc3ccc(N(C)C)cc3)nnc2c1 | 244 nM
3 | Cc1cc2nc(Nc3ccc(S(=O)(=O)NCCN4CCCC4)cc3)nnc2cc1-c1ccccc1 [4-(6-methyl-7-phenyl-benzo[1,2,4]triazin-3-ylamino)-N-(2-pyrrolidin-1-yl-ethyl)-benzenesulfonamide] | 315 nM
4 | Cc1cc(-c2c(O)cccc2Cl)cc2nnc(Nc3ccc(S(=O)(=O)NCCN4CCCC4)cc3)nc12 [4-(7-(2-chloro-6-hydroxyphenyl)-5-methylbenzo[e][1,2,4]triazin-3-ylamino)-N-(2-(pyrrolidin-1-yl)ethyl)benzensulfonamide] | 12.6 nM
5 | CNc1cccc(-c2cc(C)c3nc(Nc4ccc(S(=O)(=O)NCCN5CCCC5)cc4)nnc3c2)c1 [4-[5-methyl-7-(3-methylamino-phenyl)-benzo[1,2,4]triazin-3-ylamino]-N-(2-pyrrolidin-1-yl-ethyl)-benzenesulfonamide] | 631 nM
6 | Cc1cc(-c2cccc(NS(C)(=O)=O)c2)cc2nnc(Nc3ccc(S(=O)(=O)NCCN4CCCC4)cc3)nc12 [4-[7-(3-methanesulfonylamino-phenyl)-5-methyl-benzo[1,2,4]triazin-3-ylamino]-N-(2-pyrrolidin-1-yl-ethyl)-benzenesulfonamide] | 2900 nM
7 | Cc1cccc(C)c1-c1cc(N)c2nc(Nc3ccc(OCCN4CCCC4)cc3)nnc2c1 [7-(2,6-dimethyl-phenyl)-N3-[4-(2-pyrrolidin-1-yl-ethoxy)-phenyl]-benzo[1,2,4]triazine-3,5-diamine] | 9.7 nM
8 | Cc1ccc(Nc2nnc3cc(-c4c(C)cccc4C)cc(C)c3n2)c(C)c1 [(2,4-dimethyl-phenyl)-[7-(2,6-dimethyl-phenyl)-5-methyl-benzo[1,2,4]triazin-3-yl]-amine] | > 10000 nM
9 | CCCCc1ccc(Nc2nnc3cc(-c4c(C)cccc4C)cc(C)c3n2)cc1 [(4-butyl-phenyl)-[7-(2,6-dimethyl-phenyl)-5-methyl-benzo[1,2,4]triazin-3-yl]-amine] | > 100000 nM
10 | Cc1cc(N2CCCCC2)cc2nnc(Nc3cccnc3)nc12 [(5-methyl-7-piperidin-1-yl-benzo[1,2,4]triazin-3-yl)-pyridin-3-yl-amine] | > 10000 nM
11 | CC(=O)Nc1nnc2cc(-c3c(C)cccc3C)cc(C)c2n1 [N-[7-(2,6-dimethyl-phenyl)-5-methyl-benzo[1,2,4]triazin-3-yl]-acetamide] | > 10000 nM
12 | Cc1cccc(C)c1-c1cc(C)c2nc(NC(=O)c3ccccc3)nnc2c1 [N-[7-(2,6-dimethyl-phenyl)-5-methyl-benzo[1,2,4]triazin-3-yl]-benzamide] | 1800 nM
13 | Clc1cccc(Cl)c1-c1ccc2nc(Nc3ccc(OCCN4CCCC4)cc3)nnc2c1 [[7-(2,6-dichloro-phenyl)-benzo[1,2,4]triazin-3-yl]-[4-(2-pyrrolidin-1-yl-ethoxy)-phenyl]-amine] | 121 nM
14 | Cc1cccc(C)c1-c1cc(C)c2nc(Nc3cccc(S(=O)(=O)N4CCNCC4)c3)nnc2c1 [[7-(2,6-dimethyl-phenyl)-5-methyl-benzo[1,2,4]triazin-3-yl]-[3-(piperazine-1-sulfonyl)-phenyl]-amine] | 48.2 nM
15 | Cc1cccc(C)c1-c1cc(C)c2nc(Nc3ccncc3)nnc2c1 [[7-(2,6-dimethyl-phenyl)-5-methyl-benzo[1,2,4]triazin-3-yl]-pyridine-4-yl-amine] | 36 nM
16 | Cc1cccc(C)c1-c1cc(C)c2nc(Nc3cccc4cccnc34)nnc2c1 [[7-(2,6-dimethyl-phenyl)-5-methyl-benzo[1,2,4]triazin-3-yl]-quinolin-8-yl-amine] | > 10000 nM
17 | COc1ccc(Cl)c(-c2cc(C)c3nc(Nc4ccc(OCCN5CCCC5)cc4)nnc3c2)c1 [[7-(2-chloro-5-methoxy-phenyl)-5-methyl-benzo[1,2,4]triazin-3-yl]-[4-(2-pyrrolidin-1-yl-ethoxy)-phenyl]-amine] | 788 nM

Further lines, results first:

Row | IC50 | Compound
18 | 66.5 nM | Cc1cc2nc(Nc3ccc(S(=O)(=O)NCCN4CCCC4)cc3)nnc2cc1-c1ccccc1C(F)(F)F [4-[6-methyl-7-(2-trifluoromethyl-phenyl)-benzo[1,2,4]triazin-3-ylamino]-N-(2-pyrrolidin-1-yl-ethyl)-benzenesulfonamide]
19 | 14 nM | Cc1cc(-c2c(Cl)cccc2Cl)cc2nnc(Nc3ccc(S(=O)(=O)NCCN4CCCC4)cc3)nc12 [4-[7-(2,6-dichloro-phenyl)-5-methyl-benzo[1,2,4]triazin-3-ylamino]-N-(2-pyrrolidin-1-yl-ethyl)-benzenesulfonamide]
20 | 72.2 nM | Cc1cc2nc(Nc3ccc(S(=O)(=O)NCCN4CCCC4)cc3)nnc2cc1-c1ccccc1CO [4-[7-(2-Hydroxymethyl-phenyl)-6-methyl-benzo[1,2,4]triazin-3-ylamino]-N-(2-pyrrolidin-1-yl-ethyl)-benzenesulfonamide]
21 | 282 nM | Cc1cc(-c2cccc(N)c2)cc2nnc(Nc3ccc(S(=O)(=O)NCCN4CCCC4)cc3)nc12 [4-[7-(3-amino-phenyl)-5-methyl-benzo[1,2,4]triazin-3-ylamino]-N-(2-pyrrolidin-1-yl-ethyl)-benzenesulfonamide]
22 | 12.3 nM | Cc1ccc(C#N)cc1-c1cc2nnc(Nc3ccc(S(=O)(=O)NCCN4CCCC4)cc3)nc2cc1C [4-[7-(5-Cyano-2-methyl-phenyl)-6-methyl-benzo[1,2,4]triazin-3-ylamino]-N-(2-pyrrolidin-1-yl-ethyl)-benzenesulfonamide]
23 | 51 nM | Cc1cc(-c2cc(N)ccc2Cl)cc2nnc(Nc3ccc(S(=O)(=O)NCCN4CCCC4)cc3)nc12 [4-[7-(5-amino-2-chloro-phenyl)-5-methyl-benzo[1,2,4]triazin-3-ylamino]-N-(2-pyrrolidin-1-yl-ethyl)-benzenesulfonamide]
24 | 10.6 nM | CNc1cc(-c2c(C)cccc2C)cc2nnc(Nc3ccc(OCCN4CCCC4)cc3)nc12 [7-(2,6-dimethyl-phenyl)-N5-methyl-N3-[4-(2-pyrrolidin-1-yl-ethoxy)-phenyl]-benzo[1,2,4]triazine-3,5-diamine]
25 | > 10000 nM | Cc1cccc(Nc2nnc3cc(-c4c(C)cccc4C)cc(C)c3n2)c1C [(2,3-dimethyl-phenyl)-[7-(2,6-dimethyl-phenyl)-5-methyl-benzo[1,2,4]triazin-3-yl]-amine]
26 | > 10000 nM | Cc1ccc(C)c(Nc2nnc3cc(-c4c(C)cccc4C)cc(C)c3n2)c1 [(2,5-dimethyl-phenyl)-[7-(2,6-dimethyl-phenyl)-5-methyl-benzo[1,2,4]triazin-3-yl]-amine]
27 | > 100000 nM | COc1ccccc1Nc1nnc2cc(-c3c(C)cccc3C)cc(C)c2n1 [(2-methoxy-phenyl)-[7-(2,6-dimethyl-phenyl)-5-methyl-benzo[1,2,4]triazin-3-yl]-amine]
28 | 134 nM | Cc1cccc(C)c1-c1cc(C)c2nc(Nc3cccc(Cl)c3)nnc2c1 [(3-chloro-phenyl)-[7-(2,6-dimethyl-phenyl)-5-methyl-benzo[1,2,4]triazin-3-yl]-amine]
29 | 108 nM | CCOc1ccc(Nc2nnc3cc(-c4c(C)cccc4C)cc(C)c3n2)cc1 [(4-ethoxy-phenyl)-[7-(2,6-dimethyl-phenyl)-5-methyl-benzo[1,2,4]triazin-3-yl]-amine]
30 | 140 nM | COc1ccc(Nc2nnc3cc(-c4c(C)cccc4C)cc(C)c3n2)cc1 [(4-methoxy-phenyl)-[7-(2,6-dimethyl-phenyl)-5-methyl-benzo[1,2,4]triazin-3-yl]-amine]
31 | 1800 nM | Cc1cc(-c2ccccn2)cc2nnc(Nc3ccc(OCCN4CCCC4)cc3)nc12 [(5-methyl-7-pyridin-2-yl-benzo[1,2,4]triazin-3-yl)-[4-(2-pyrrolidin-1-yl-ethoxy)-phenyl]-amine]
32 | > 10000 nM | Cc1cc(-c2cc(OC(=O)c3ccccc3)ccc2Cl)cc2nnc(Nc3ccc(OCCN4CCCC4)cc3)nc12 [Benzoic acid 4-chloro-3-{5-methyl-3-[4-(2-pyrrolidin-1-yl-ethoxy)-phenylamino]-benzo[1,2,4]triazin-7-yl}-phenyl ester]
33 | > 10000 nM | Cc1cc(C)c(-c2cc(C)c3nc(Nc4ccccc4)nnc3c2)c(C)c1 [[5-methyl-7-(2,4,6-trimethyl-phenyl)-benzo[1,2,4]triazin-3-yl]-phenyl-amine]
34 | 130 nM | Cc1cccc(C)c1-c1cc2nnc(Nc3ccccc3)nc2c(C)c1C [[7-(2,6-dimethyl-phenyl)-5,6-dimethyl-benzo[1,2,4]triazin-3-yl]-phenyl-amine]
35 | 137 nM | Cc1cccc(C)c1-c1cc(C)c2nc(Nc3ccc(S(=O)(=O)N4CCN(C)CC4)cc3)nnc2c1 [[7-(2,6-dimethyl-phenyl)-5-methyl-benzo[1,2,4]triazin-3-yl]-[4-(4-methyl-piperazine-1-sulfonyl)-phenyl]-amine]
36 | > 10000 nM | Cc1cccc(C)c1-c1cc(C)c2nc(Nc3ccccn3)nnc2c1 [[7-(2,6-dimethyl-phenyl)-5-methyl-benzo[1,2,4]triazin-3-yl]-pyridin-2-yl-amine]
37 | 12.6 nM | Cc1cccc(C)c1-c1cc(C)c2nc(Nc3ccc(OCCCN4CCCC4)cc3)nnc2c1 [[7-(2,6-dimethyl-phenyl)-5-methyl-benzo[1,2,4]triazin-3-yl]-{4-(3-pyrrolidin-1-yl-propoxy)-phenyl]-amine]
38 | 12.3 nM | Cc1cc2nc(Nc3ccc(OCCN4CCCC4)cc3)nnc2cc1-c1c(C)cccc1C [[7-(2,6-dimethyl-phenyl)-6-methyl-benzo[1,2,4]triazin-3-yl]-[4-(2-pyrrolidin-1-yl-ethoxy)-phenyl]-amine]
39 | 15 nM | Cc1cccc(C)c1-c1ccc2nc(Nc3ccc(OCCN4CCCC4)cc3)nnc2c1 [[7-(2,6-dimethyl-phenyl)-benzo[1,2,4]triazin-3-yl]-[4-(2-pyrrolidin-1-yl-ethoxy)-phenyl]-amine]

Source: patent US8481536B2, “Benzotriazine inhibitors of kinases” (TargeGen, Inc., priority 2004, dated 2013)
